Data as given in PubChem BioAssay AID1259407 (Chemical Carcinogenesis Research Information System (CCRIS), 2018).
Entries after “also recorded” stand apart in the source; their conditions may differ. Activity calls are given as the source filed them. No rule for the calls is given here.

System: CCRIS mutagenicity, Ames/micronucleus/aberration tests
Assay: CCRIS mutagenicity studies

Measured: mutagenic call

CC/C(=C(/CC)c1ccc(O)cc1)c1ccc(O)cc1
inactive: End Point: IN VITRO CHROMOSOMAL ABERRATIONS, Test System: HUMAN PERIPHERAL LYMPHOCYTES, Metabolic Activation: NONE inactive; negative | Test System: AMES SALMONELLA TYPHIMURIUM, Strain/Indicator: TA97, Metabolic Activation: HAMSTER LIVER S-9, AROCLOR 1254 (10%), Method: PREINCUBATION inactive; negative | Test System: AMES SALMONELLA TYPHIMURIUM, Strain/Indicator: TA97, Metabolic Activation: HAMSTER LIVER S-9, AROCLOR 1254 (30%), Method: PREINCUBATION inactive; negative | Test System: AMES SALMONELLA TYPHIMURIUM, Strain/Indicator: TA97, Metabolic Activation: NONE, Method: PREINCUBATION inactive; negative | Test System: AMES SALMONELLA TYPHIMURIUM, Strain/Indicator: TA97, Metabolic Activation: NONE, Method: STANDARD PLATE inactive; negative | Test System: AMES SALMONELLA TYPHIMURIUM, Strain/Indicator: TA97, Metabolic Activation: RAT LIVER S-9, AROCLOR 1254 (10%), Method: PREINCUBATION inactive; negative | Test System: AMES SALMONELLA TYPHIMURIUM, Strain/Indicator: TA97, Metabolic Activation: RAT LIVER S-9, AROCLOR 1254 (30%), Method: PREINCUBATION inactive; negative | Test System: AMES SALMONELLA TYPHIMURIUM, Strain/Indicator: TA97, Metabolic Activation: RAT, LIVER, S-9, AROCLOR 1254, Method: STANDARD PLATE inactive; negative | Test System: AMES SALMONELLA TYPHIMURIUM, Strain/Indicator: TA97, Metabolic Activation: S-9, Method: STANDARD PLATE inactive; negative | Test System: AMES SALMONELLA TYPHIMURIUM, Strain/Indicator: TA98, Metabolic Activation: HAMSTER LIVER S-9, AROCLOR 1254 (10%), Method: PREINCUBATION inactive; negative | Test System: AMES SALMONELLA TYPHIMURIUM, Strain/Indicator: TA98, Metabolic Activation: HAMSTER LIVER S-9, AROCLOR 1254 (30%), Method: PREINCUBATION inactive; negative | Test System: AMES SALMONELLA TYPHIMURIUM, Strain/Indicator: TA98, Metabolic Activation: NONE, Method: PREINCUBATION inactive; negative | Test System: AMES SALMONELLA TYPHIMURIUM, Strain/Indicator: TA98, Metabolic Activation: RAT LIVER S-9, AROCLOR 1254 (10%), Method: PREINCUBATION inactive; negative | Test System: AMES SALMONELLA TYPHIMURIUM, Strain/Indicator: TA98, Metabolic Activation: RAT LIVER S-9, AROCLOR 1254 (30%), Method: PREINCUBATION inactive; negative | Test System: AMES SALMONELLA TYPHIMURIUM, Strain/Indicator: TA98, Metabolic Activation: RAT, LIVER, S-9, AROCLOR 1254, Method: STANDARD PLATE inactive; negative | Test System: AMES SALMONELLA TYPHIMURIUM, Strain/Indicator: TA98, Metabolic Activation: RAT, LIVER, S-9, Method: STANDARD PLATE inactive; negative | Test System: AMES SALMONELLA TYPHIMURIUM, Strain/Indicator: TA98, Metabolic Activation: S-9, Method: STANDARD PLATE inactive; negative | Test System: AMES SALMONELLA TYPHIMURIUM, Strain/Indicator: TA100, Metabolic Activation: HAMSTER LIVER S-9, AROCLOR 1254 (10%), Method: PREINCUBATION inactive; negative | Test System: AMES SALMONELLA TYPHIMURIUM, Strain/Indicator: TA100, Metabolic Activation: HAMSTER LIVER S-9, AROCLOR 1254 (30%), Method: PREINCUBATION inactive; negative | Test System: AMES SALMONELLA TYPHIMURIUM, Strain/Indicator: TA100, Metabolic Activation: NONE, Method: PREINCUBATION inactive; negative | Test System: AMES SALMONELLA TYPHIMURIUM, Strain/Indicator: TA100, Metabolic Activation: RAT LIVER S-9, AROCLOR 1254 (10%), Method: PREINCUBATION inactive; negative | Test System: AMES SALMONELLA TYPHIMURIUM, Strain/Indicator: TA100, Metabolic Activation: RAT LIVER S-9, AROCLOR 1254 (30%), Method: PREINCUBATION inactive; negative | Test System: AMES SALMONELLA TYPHIMURIUM, Strain/Indicator: TA100, Metabolic Activation: RAT, LIVER, S-9, AROCLOR 1254, Method: STANDARD PLATE inactive; negative | Test System: AMES SALMONELLA TYPHIMURIUM, Strain/Indicator: TA100, Metabolic Activation: RAT, LIVER, S-9, Method: STANDARD PLATE inactive; negative; toxicity at 100 ug/plate | Test System: AMES SALMONELLA TYPHIMURIUM, Strain/Indicator: TA100, Metabolic Activation: S-9, Method: STANDARD PLATE inactive; negative | Test System: AMES SALMONELLA TYPHIMURIUM, Strain/Indicator: TA102, Metabolic Activation: NONE, Method: STANDARD PLATE inactive; negative | Test System: AMES SALMONELLA TYPHIMURIUM, Strain/Indicator: TA102, Metabolic Activation: S-9, Method: STANDARD PLATE inactive; negative | Test System: AMES SALMONELLA TYPHIMURIUM, Strain/Indicator: TA1535, Metabolic Activation: HAMSTER LIVER S-9, AROCLOR 1254 (30%), Method: PREINCUBATION inactive; negative | Test System: AMES SALMONELLA TYPHIMURIUM, Strain/Indicator: TA1535, Metabolic Activation: HAMSTER LIVER, S-9, AROCLOR 1254 (10%), Method: PREINCUBATION inactive; negative | Test System: AMES SALMONELLA TYPHIMURIUM, Strain/Indicator: TA1535, Metabolic Activation: NONE, Method: PREINCUBATION inactive; negative | Test System: AMES SALMONELLA TYPHIMURIUM, Strain/Indicator: TA1535, Metabolic Activation: RAT LIVER S-9, AROCLOR 1254 (10%), Method: PREINCUBATION inactive; negative | Test System: AMES SALMONELLA TYPHIMURIUM, Strain/Indicator: TA1535, Metabolic Activation: RAT LIVER S-9, AROCLOR 1254 (30%), Method: PREINCUBATION inactive; negative | Test System: AMES SALMONELLA TYPHIMURIUM, Strain/Indicator: TA1535, Metabolic Activation: RAT, LIVER, S-9, AROCLOR 1254, Method: STANDARD PLATE inactive; negative | Test System: AMES SALMONELLA TYPHIMURIUM, Strain/Indicator: TA1535, Metabolic Activation: RAT, LIVER, S-9, Method: STANDARD PLATE inactive; negative; toxicity at 50 and 100 ug/plate | Test System: AMES SALMONELLA TYPHIMURIUM, Strain/Indicator: TA1537, Metabolic Activation: RAT, LIVER, S-9, AROCLOR 1254, Method: STANDARD PLATE inactive; negative | Test System: AMES SALMONELLA TYPHIMURIUM, Strain/Indicator: TA1537, Metabolic Activation: RAT, LIVER, S-9, Method: STANDARD PLATE inactive; negative | Test System: AMES SALMONELLA TYPHIMURIUM, Strain/Indicator: TA1538, Metabolic Activation: NONE, Method: STANDARD PLATE inactive; negative | Test System: AMES SALMONELLA TYPHIMURIUM, Strain/Indicator: TA1538, Metabolic Activation: RAT, LIVER, S-9, AROCLOR 1254, Method: STANDARD PLATE inactive; negative | Test System: AMES SALMONELLA TYPHIMURIUM, Strain/Indicator: TA1538, Metabolic Activation: RAT, LIVER, S-9, Method: STANDARD PLATE inactive; negative | Test System: E. COLI, Strain/Indicator: WP2 UVRA, Metabolic Activation: HAMSTER, LIVER, S-9, AROCLOR 1254, Method: STANDARD PLATE inactive; negative | Test System: E. COLI, Strain/Indicator: WP2 UVRA, Metabolic Activation: HAMSTER, LIVER, S-9, Method: STANDARD PLATE inactive; negative | Test System: E. COLI, Strain/Indicator: WP2 UVRA, Metabolic Activation: MOUSE, LIVER, S-9, AROCLOR 1254, Method: STANDARD PLATE inactive; negative | Test System: E. COLI, Strain/Indicator: WP2 UVRA, Metabolic Activation: MOUSE, LIVER, S-9, Method: STANDARD PLATE inactive; negative | Test System: E. COLI, Strain/Indicator: WP2 UVRA, Metabolic Activation: NONE, Method: STANDARD PLATE inactive; negative | Test System: E. COLI, Strain/Indicator: WP2 UVRA, Metabolic Activation: RAT, LIVER, S-9, AROCLOR 1254, Method: STANDARD PLATE inactive; negative | Test System: E. COLI, Strain/Indicator: WP2 UVRA, Metabolic Activation: RAT, LIVER, S-9, Method: STANDARD PLATE inactive; negative | Test System: MOUSE LYMPHOMA, Strain/Indicator: L5178Y (TK+/+)/OUABAIN, Metabolic Activation: NONE, Method: SUSPENSION/PLATE inactive; negative | Test System: MOUSE LYMPHOMA, Strain/Indicator: L5178Y (TK+/-)/TRIFLUROTHYMIDINE, Metabolic Activation: NONE, Method: SUSPENSION/PLATE inactive; negative | Test System: MOUSE LYMPHOMA, Strain/Indicator: L5178Y (TK+/TK-), Metabolic Activation: NONE, Method: MICROWELL inactive; negative | Test System: UDS RAT HEPATOCYTES, Strain/Indicator: THY INCORP (18-20 HR), Metabolic Activation: NONE, Method: LIQUID SCINTILLATION COUNTING inactive; negative | Test System: UDS RAT HEPATOCYTES, Strain/Indicator: THY INCORP, Metabolic Activation: NONE, Method: LIQUID SCINTILLATION COUNTING inactive; negative
active: End Point: IN VITRO CHROMOSOMAL ABERRATIONS, Test System: CHINESE HAMSTER CELL DON (22;XY), Metabolic Activation: NONE active; positive (ploidy changes) | End Point: IN VITRO CHROMOSOMAL ABERRATIONS, Test System: HUMAN LYMPHOCYTES, Metabolic Activation: NONE, Method: FISH active; positive (ploidy changes in chromosomes 1, 9, 16); also recorded: active; positive (ploidy changes in chromosomes 7 and 9) | End Point: IN VITRO CHROMOSOMAL ABERRATIONS, Test System: SYRIAN HAMSTER EMBRYO (SHE) CELLS, Metabolic Activation: NONE active; positive (ploidy changes) | End Point: IN VITRO MICRONUCLEUS, Test System: HUMAN PERIPHERAL LYMPHOCYTES, Metabolic Activation: NONE active; positive | End Point: IN VITRO MICRONUCLEUS, Test System: V79 CELLS, Metabolic Activation: NONE active; positive | Test System: MOUSE LYMPHOMA, Strain/Indicator: L5178Y (TK+/+)/OUABAIN, Metabolic Activation: RAT LIVER S-9, AROCLOR 1254, Method: SUSPENSION/PLATE active; positive | Test System: MOUSE LYMPHOMA, Strain/Indicator: L5178Y (TK+/-)/TRIFLUROTHYMIDINE, Metabolic Activation: RAT LIVER S-9, AROCLOR 1254, Method: SUSPENSION/PLATE active; positive | Test System: MOUSE LYMPHOMA, Strain/Indicator: L5178Y (TK+/TK-), Metabolic Activation: S-9, Method: MICROWELL active; positive
